Assay results reported in patent US20110160158A1, “METHODS OF TREATMENT OF BIPOLAR DISORDER” (REPLIGEN CORPORATION, priority 2008, published 2011).

Assays:
[1] = tested on: patients undergoing chemotherapy with 5-fluorouracil; settings: 6 g four times a day; cited from earlier work
[2] = tested on: children with mitochondrial disease; settings: 2 g/m^2 three times daily for up to two years; cited from earlier work
[3] = tested on: patients (e.g. hereditary orotic aciduria); settings: cited from earlier work
[4] = tested on: patients with Bipolar I Disorder, Most Recent Episode Depressed; assay: Six-week double blind placebo-controlled dose-escalation study of uridine in bipolar I depression: MADRS; format: in vivo, human; settings: for True difference in mean MADRS between groups (uridine vs placebo): week 6; for Mean change of MADRS from baseline (treatment response), percent: total group; for Average improvement on MADRS over placebo: weeks 2-6
[5] = tested on: patients with Bipolar I Disorder, Most Recent Episode Depressed; assay: Same six-week study: Hamilton Anxiety Scale (HAM-A); format: in vivo, human
Description: (§1) The YMRS is an 11 item scale designed to measure core manic symptoms (Young et al., Br. J. Psychiatry, 133:429-435). A cumulative score of 15 or greater on the YMRS was considered evidence of a treatment emergent affective switch. The HAM-A scale is a measure of global anxiety, including cognitive and somatic symptoms.
A six-week, double blind, placebo-controlled, dose-escalation study was performed to assess the safety and efficacy of uridine in bipolar I depression. Eight-four (84) patients of both sexes were enrolled at twelve sites, randomized on a 1:1 basis to receive either placebo or uridine. To decrease the probability of a false negative result, uridine or placebo were given as monotherapy, and no concurrent bipolar medications, including mood stabilizers, atypical antipsychotics, antidepressants, anticonvulsants or other psychotropic medications were allowed during the study. Patients taking such medications were tapered gradually during the 28 days prior to initiation of the trial. Patients were evaluated each week over the 6-week trial period, with an extensive intervention plan for any patient having exacerbation of bipolar or depressive symptoms. […]
The effect on anxiety in uridine-treated bipolar I depression subjects in comparison to placebo was evaluated using the mean HAM-A scores for each group.

[6] = tested on: patients with Bipolar I Disorder, Most Recent Episode Depressed; format: in vivo, human
Description: as §1
(§2) A six-week, double blind, placebo-controlled, dose-escalation study was performed to assess the safety and efficacy of uridine in bipolar I depression. Eight-four (84) patients of both sexes were enrolled at twelve sites, randomized on a 1:1 basis to receive either placebo or uridine. To decrease the probability of a false negative result, uridine or placebo were given as monotherapy, and no concurrent bipolar medications, including mood stabilizers, atypical antipsychotics, antidepressants, anticonvulsants or other psychotropic medications were allowed during the study. Patients taking such medications were tapered gradually during the 28 days prior to initiation of the trial. Patients were evaluated each week over the 6-week trial period, with an extensive intervention plan for any patient having exacerbation of bipolar or depressive symptoms. After the trial period, patients were eligible to initiate therapy for bipolar disease and a follow-up visit occurred at week ten.
Informed consent was provided by all patients. […]

[7] = in vivo; cited from earlier work
[8] = tested on: patients with Bipolar I Disorder, Most Recent Episode Depressed; assay: Same six-week study: Clinical Global Impression for bipolar disorder (CGI-BP-S / CGI-BP-C); format: in vivo, human; settings: for Average CGI-C-BP (Depression) / Average CGI-C-BP (Overall): 7-point scale, 4 = no change, lower = improved
Description: The CGI-BP scale is a modification of the clinical global impression for use in bipolar disorder as a global assessment of patient severity and change of status (Spearing et al., 1997, Psychiatry Res., 73:159-171). The CGI-BP-S rates the severity of the illness on a 7 point scale. The CGI-BP-C rates the change in the severity of disease compared to baseline. This also uses a 7 point scale, anchored by a score of 4 which correlates to no change since the initiation of treatment. Lower scores correspond to improvement, higher to worsening.
as §2
Informed consent was provided by all patients.
Subjects in the uridine treatment group were given either 2 g per day (low dose) or 4 g per day (high dose) of uridine. Subjects in the placebo group were given tablets of identical size and appearance with identical dosing instructions.
A dose of 1 g orally twice daily (2 g/day) was chosen to initiate treatment, with an increase to 2 g orally twice daily (4 g/day) in the absence of clinical improvement. On Day 1, all patients received a single dose of either placebo or uridine (2 g). This loading dose was done in order to compare pharmacokinetics of uridine at study start and end. Beginning on Day 2, patients received either placebo and uridine at a dose of 2 g/day administered as 1 g orally twice daily (2 tablets twice daily) for one week. At the Day 8 visit, the dose was increased to 4 g/day administered as 2 g orally twice daily (4 tablets twice daily) if there had been no serious untoward drug-related adverse events, and if the subject had less than a 25% improvement on the MADRS from baseline (Day 1). Patients that remained on 2 g/day were increased to 4 g/day at a subsequent visit if the improvement from baseline on the MADRS was less than 25%. Likewise, subjects having adverse events at the high dose were decreased to the low dose at the discretion of the investigator. On Day 43, all patients received a single dose of either placebo or uridine administered as 2 g orally twice daily (4 tablets twice daily), regardless of dose regimen. This was the patients' last dose of study drug.
The CGI-BP is a clinical impression scale that has been adapted for bipolar disorder and is comprised of an overall score, a depression score and a mania score. The CGI in this study used the severity of disease (CGI-BP-S) at study day 1 as the anchor point and the change from baseline (CGI-BP-C) in subsequent evaluations. Each assessment was intended to measure the change from the study start. The severity of disease (baseline) was similar between groups (Uridine=4.48; Placebo=4.68, n.s.), which are similar in magnitude to published efficacy trials in bipolar I depression (Brown et al., 2006, J. Clin. Psychiatry, 67:1025-33; Calabrese et al., 1999, J. Clin. Psychiatry, 60:79-88; Thase et al., 2006, J. Clin. Psychiatry, 26:600-609; Tohen et al., 2003, Arch. Gen. Psychiatry, 60:1079-88; Goldberg et al., 2007, Am. J. Psychiatry, 164:1348-55; Nierenberg et al., 2006, Am. J. Psychiatry, 163:210-216). […]

[9] = tested on: patients undergoing cancer chemotherapy; settings: cited from earlier work
[10] = Wk 10, follow-up a month after treatment concluded

Question: Which Adverse effects [1] does the source give for `CC(=O)OC[C@H]1O[C@@H](n2ccc(=O)[nH]c2=O)[C@H](OC(C)=O)[C@@H]1OC(C)=O` [TAU, Triacetyluridine] here?
Answer: no adverse effects

Question: And the Adverse events [2]?
Answer: no adverse events were reported

Question: What does the source list for `O=c1ccn([C@@H]2O[C@H](CO)[C@@H](O)[C@H]2O)c(=O)[nH]1` [uridine]?
Answer: Effect of higher dosages in some patients ([3]; dosages higher than 1000 mg/kg/day): mild diarrhea; Toxic effects of pure uridine, long-term experience ([3]; dosages of up to 1000 mg/kg/day): no known toxic effects; Plasma uridine levels ([3]; oral, doses greater than 240 mg/kg): 60 to 80 µM; Side effects noted with high dose oral uridine ([3]; oral, typically at doses greater than 240 mg/kg): diarrhea and abdominal cramps; MADRS change from baseline, as percentage of the baseline score, Δ (%) ([4]; Baseline (Study Day 1)): 0%; Average MADRS score ([4]; Baseline (Study Day 1), all patients): 30.28; Difference in change from baseline of average MADRS vs placebo (Δ) ([4]; Day 43, subjects with <2 episodes of mania or hypomania): −8.2; Difference in change from baseline of average MADRS vs placebo (Δ) ([4]; Day 43, subjects with <10 episodes of depression): −1.7; Difference in change from baseline of average MADRS vs placebo (Δ) ([4]; Day 43, subjects with ≧10 episodes of depression, p=0.18): 5.8; MADRS change from baseline, as percentage of the baseline score, Δ (%) ([4]; Wk 1): −25.8%; Average MADRS score ([4]; Wk 1, oral 2-4 g/day, all patients): 22.46; MADRS change from baseline, as percentage of the baseline score, Δ (%) ([4]; Wk 2): −37.9%; Average MADRS score ([4]; Wk 2, oral 2-4 g/day, all patients): 18.81; MADRS change from baseline, as percentage of the baseline score, Δ (%) ([4]; Wk 3): −52.5%; Average MADRS score ([4]; Wk 3, oral 2-4 g/day, all patients): 15.90; MADRS change from baseline, as percentage of the baseline score, Δ (%) ([4]; Wk 4): −54.0%; Average MADRS score ([4]; Wk 4, oral 2-4 g/day, all patients): 13.93; MADRS change from baseline, as percentage of the baseline score, Δ (%) ([4]; Wk 5): −50.6%; Average MADRS score ([4]; Wk 5, oral 2-4 g/day, all patients): 14.97; MADRS change from baseline, as percentage of the baseline score, Δ (%) ([4]; Wk 6): −58.1%; Average MADRS score ([4]; Wk 6 (end of treatment), oral 2-4 g/day, all patients): 12.69; Average MADRS score [4, 10]: 15.91; MADRS change from baseline, as percentage of the baseline score, Δ (%) [4, 10]: −47.5%; Effect size from MERM change in mean MADRS score compared to placebo ([4]; baseline adjusted as a covariate, all patients): 0.43; Rebound in the MADRS assessment after end of dosing ([4]; final assessment 4 weeks after study drug administration was completed): no rebound; Difference of the mean MADRS scores in comparison to placebo (primary efficacy outcome) ([4]; mixed effects repeat measures, day 1 to day 43, total scores p=0.011, percent change from baseline p=0.014): statistically significant; Improvement in MADRS score (Uridine vs Placebo) ([4]; patients with <5 manic episodes, Day 1): −0.64; Improvement in MADRS score (Uridine vs Placebo) ([4]; patients with <5 manic episodes, Day 8): −3.57; Improvement in MADRS score (Uridine vs Placebo) ([4]; patients with <5 manic episodes, Day 15): −1.39; Improvement in MADRS score (Uridine vs Placebo) ([4]; patients with <5 manic episodes, Day 22): −1.20; Improvement in MADRS score (Uridine vs Placebo) ([4]; patients with <5 manic episodes, Day 29): −1.76; Improvement in MADRS score (Uridine vs Placebo) ([4]; patients with <5 manic episodes, Day 36): −4.62; Improvement in MADRS score (Uridine vs Placebo) ([4]; patients with <5 manic episodes, Day 43): −6.56; Response (MADRS vs placebo) ([4]; patients with a history of fewer than 2 episodes of mania): No positive response; Improvement in MADRS score (Uridine vs Placebo) ([4]; patients with ≧5 manic episodes, Day 1): 0.37; Improvement in MADRS score (Uridine vs Placebo) ([4]; patients with ≧5 manic episodes, Day 8): 1.63; Improvement in MADRS score (Uridine vs Placebo) ([4]; patients with ≧5 manic episodes, Day 15): 4.41; Improvement in MADRS score (Uridine vs Placebo) ([4]; patients with ≧5 manic episodes, Day 22): 6.33; Improvement in MADRS score (Uridine vs Placebo) ([4]; patients with ≧5 manic episodes, Day 29): 7.07; Improvement in MADRS score (Uridine vs Placebo) ([4]; patients with ≧5 manic episodes, Day 36): 3.20; Improvement in MADRS score (Uridine vs Placebo) ([4]; patients with ≧5 manic episodes, Day 43 (week 6)): 5.88; Treatment response, MADRS change from baseline ([4]; study end (week 6), subset with 15 or more episodes of depression): 58%; MADRS improvement from baseline ([4]; study end, subset with <15 historic episodes of depression): 58%; Difference in mean MADRS scores between treatment and placebo groups ([4]; subset with <15 historic episodes of depression (49 subjects)): no appreciable difference; Average true difference in mean MADRS (corrected for baseline) vs placebo ([4]; week 3 to week 6, all patients): 3.2 points; True difference in mean MADRS vs placebo (Δ) ([4]; week 6 (Day 43), subjects with ≧2 episodes of mania or hypomania, p=0.11): 5.7; True difference in mean MADRS between groups (uridine vs placebo) ([4]; subjects with 15 or more episodes of mania and/or hypomania): 9.46; True difference in mean MADRS between groups (uridine vs placebo) ([4]; subjects with history of 15 or more episodes of depression): 6.35; True difference in mean MADRS between groups (uridine vs placebo) ([4]; total score (all subjects)): 3.04; Mean change of MADRS from baseline ([4]; week 6 end of study, all patients): 17.6 points; Mean change of MADRS from baseline (treatment response), percent ([4]; week 6 end of study): 58%; Mean change of MADRS from baseline (treatment response), percent ([4]; week 6 end of study, listed as RG2417): 58.1%; Average improvement on MADRS over placebo ([4]; all patients in the study, p=0.01): 3.0 points; Average improvement on MADRS over placebo ([4]; patients with more than 5 episodes of depression (n=50), p<0.001): 5.5 points; Mean HAM-A score vs placebo, MERM over the treatment period [5]: no difference between groups; Exacerbation of mean YMRS on treatment ([6]; in vivo): did not exacerbate the mean YMRS; Change in YMRS from baseline in comparison to placebo, MERM ([6]; while on treatment, p=0.025): significant decrease; Volume distribution [7]: around 0.634 liters/kg; Change in CGI vs placebo, MERM analysis of the treatment period ([8]; CGI-BP-C overall, p=0.044): significant difference; Average CGI-C-BP (Depression) ([8]; Wk 1): 3.05; Average CGI-C-BP (Overall) ([8]; Wk 1): 3.19; Average CGI-C-BP (Depression) ([8]; Wk 2): 2.72; Average CGI-C-BP (Overall) ([8]; Wk 2): 2.92; Average CGI-C-BP (Depression) ([8]; Wk 3): 2.31; Average CGI-C-BP (Overall) ([8]; Wk 3): 2.45; Average CGI-C-BP (Depression) ([8]; Wk 4): 2.10; Average CGI-C-BP (Overall) ([8]; Wk 4): 2.33; Average CGI-C-BP (Depression) ([8]; Wk 5): 2.14; Average CGI-C-BP (Overall) ([8]; Wk 5): 2.31; Average CGI-C-BP (Depression) ([8]; Wk 6): 2.03; Average CGI-C-BP (Overall) ([8]; Wk 6): 2.21; Main side effects seen with IV uridine [9]: infusion site phlebitis and transient shivering and fever; Sustained elevations in plasma uridine ([9]; intravenous, cancer chemotherapy context): exceeding 2,000 μM
